Patent US20060073156A1, “Fosfomycin and n-acetylcysteine for the treatment of biofilms caused by escheric ia coli and other pathogens of the urinary tract” (ZAMBON GROUP S.P.A., priority 2002, published 2006)
“And” between values parts separate entries of the source, which are not always exact repeats. Equal values may be shown once. Read-outs that look alike come from different tables or passages of the source.

Legend:
[1] = tested on: biofilm produced by Escherichia coli; test: Formation of biofilm, Crystal Violet staining in polystyrene microplates, measured at 492 nm; assay type: cell-based; conditions: various concentrations of NAC added to the cultures; three strains out of four
Experimental: (§1) The effects of NAC and fosfomycin on the biofilm produced by Escherichia coli have been evaluated on four strains designated 169, 255, 1263 and 1293, from the Microbiological Collection of the Genua University.
(§2) Formation of the biofilms was measured spectrophotometrically in U-bottom polystyrene microplates (Corning Incorporated, NY).
In more detail, the effect of NAC on the formation of biofilms was evaluated as follows: overnight cultures in Tryptic Soy Broth (TSB) with addition of glucose (0.25%). (TSBG) were diluted 1:100 in TSBG. These suspensions (100 μl each) were added to suitable dilutions of NAC at concentrations ranging from 8 mg/ml to 0.007 mg/ml respectively. After incubation at 37° C. for 24 hours, the microplates were washed three times with 10 mM phosphate buffer pH 7.4 (PBS), treated with Bouin fixative and then stained with Crystal Violet (0.01%).
(§3) The biofilm adhering to the walls of the microplates was collected via washing with PBS, suspended in 10% sarbosyl and measured spectrophotometrically at 492 nm.

[2] = tested on: Escherichia coli; test: Bacterial growth of cultures with NAC added; assay type: cell-based; conditions: various concentrations of NAC added to the cultures; all E. coli strains tested
[3] = tested on: biofilm produced by Escherichia coli; test: Disruption of biofilms: residual quantity of biofilm after treatment of initial (5 hours) and fully consolidated (48 hours) biofilms; assay type: cell-based; conditions: NAC alone; for reduction of mature biofilms: mature (48 hours) biofilms
Experimental: as §1, §2, §3
The same method was used for calculating the residual quantity of biofilm after treatment with NAC and fosfomycin, alone or associated, on Escherichia coli. For this purpose, biofilms with two different degrees of maturity: initial (5 hours) and fully consolidated (48 hours) were exposed to appropriate concentrations of NAC (from 8 mg/ml to 0.007 mg/ml) with addition of fosfomycin at the concentrations attainable in vivo in the urine.

[4] = tested on: biofilms of P. aeruginosa; conditions: Antimicrob. Agents Chemother., 35, 1258, (1991); cited from earlier work
[5] = tested on: S. epidermidis; conditions: J. Ant. Chem., 39, 643, (1997); cited from earlier work
[6] = tested on: Escherichia coli cells of the biofilm; test: Bacterial viability of biofilm cells: sonication, seeding, count of viable units (CFU/ml); assay type: cell-based; conditions: for inhibition at 2000 µg/mL: Escherichia coli, fosfomycin 2000 mg/l alone, read-out: reductions in viable units
Experimental: as §1
At the same time the biofilms treated in this way were submitted to sonication in order to disperse the cells that were still adhering, which were seeded on rich medium after suitable dilution for calculating the viable units that survived the various treatments.

Structure (SMILES)	reductions in biofilm (formation) [1]	changes in bacterial growth [2]	reduction of initial biofilms ([3]; initial (5 hours) biofilms, strains not named)	reduction of mature biofilms ([3]; Escherichia coli 169)	reduction of mature biofilms ([3]; three strains out of four)	ability to disrupt biofilms [4]	inhibition of biofilm formation [5]	inhibition at 2000 µg/mL ([6]; fully consolidated biofilms)	inhibition at 2000 µg/mL ([6]; initial biofilms)	reductions in CFU/ml ([6]; fosfomycin 128 mg/l alone)
CC(=O)N[C@@H](CS)C(=O)O [NAC, N-acetylcysteine]	greater than 50%	did not cause appreciable changes	51.7% and 64.0% and 58.4%	25.2%	64.3% and 60.2% and 67.7%	ability to disrupt biofilms	inhibit their formation	–	–	–
C[C@@H]1O[C@@H]1P(=O)(O)O [fosfomycin, Fosfomycin]	–	–	–	–	–	–	–	36 to 85.7%	98 to 99.5%	less than 1 logarithm
